Legend:
Assay in all cases: Histone peptide microarray
Format in all cases: binding, human
[1] = test system: PHF2; conditions: PHF2, GST-tagged; arrays performed twice, n of 4
Excerpt: (§1) To more comprehensively define the histone interactions of the 31 PHD readers identified from the domain microarray analyses, we probed each on an alternate microarray platform containing a library of 293 synthetic histone peptides with single or combinatorial PTMs (Additional file 2: Figure S4 and Additional file 3: Table S2).
(§2) The 31 GST-tagged PHD readers identified in the PHD finger domain array were expressed and purified as previously. Histone peptide arrays and peptide pulldown assays were conducted as recently described (specifically, the optimized protocol from Petell et al. for the former).
(§3) Supplementary file 13072_2020_328_MOESM3_ESM.xlsx: Additional file 3: Table S2. […] Excel Tab Peptide List is a compiled list of the entire 293 histone peptide library with amino acid sequence ranges. […] Each number corresponds to the peptide number designated in Peptide List. Excel Tab Average Signals is a compiled set of binding data: chromatin reader at 0.5 μM vs. entire 293 peptide library. Data is presented as the average and standard deviation of 4 replicates. The average signals are colored to indicate signal intensity with green being strong and white being weak/low. […] Key: red= stronger relative binding; blue = weaker relative binding. Excel Tab Array info summary is a table summarizing the domains, sequence coverage, array signal range, and noise for each of the GST-tagged readers assayed on the peptide microarrays.

[2] = test system: KDM5A (3); conditions: KDM5A (3), GST-tagged; arrays performed twice, n of 4
Excerpt: as §1, §2, §3

[3] = test system: PHF13; conditions: PHF13, GST-tagged; arrays performed twice, n of 4
Excerpt: as §1, §2, §3

[4] = test system: MLL5; conditions: MLL5, GST-tagged; arrays performed twice, n of 4
Excerpt: as §1, §2, §3

[5] = test system: BAZ2B; conditions: BAZ2B, GST-tagged; arrays performed twice, n of 4
Excerpt: as §1, §2, §3

[6] = test system: ING4; conditions: ING4, GST-tagged; arrays performed twice, n of 4
Excerpt: as §1, §2, §3

[7] = test system: CHD4 (PPCC); conditions: CHD4 (PPCC), GST-tagged; arrays performed twice, n of 4
Excerpt: as §1, §2, §3

[8] = test system: KDM5A (1); conditions: KDM5A (1), GST-tagged; arrays performed twice, n of 4
Excerpt: as §1, §2, §3

[9] = test system: ING2; conditions: ING2, GST-tagged; arrays performed twice, n of 4
Excerpt: as §1, §2, §3

[10] = test system: KDM5B (3); conditions: KDM5B (3), GST-tagged; arrays performed twice, n of 4
Excerpt: as §1, §2, §3

[11] = test system: ING3; conditions: ING3, GST-tagged; arrays performed twice, n of 4
Excerpt: as §1, §2, §3

[12] = test system: TRIM66 (PB); conditions: TRIM66 (PB), GST-tagged; arrays performed twice, n of 4
Excerpt: as §1, §2, §3

[13] = test system: PHF8; conditions: PHF8, GST-tagged; arrays performed twice, n of 4
Excerpt: as §1, §2, §3

[14] = test system: PHF21A; conditions: PHF21A, GST-tagged; arrays performed twice, n of 4
Excerpt: as §1, §2, §3

[15] = test system: ING1; conditions: ING1, GST-tagged; arrays performed twice, n of 4
Excerpt: as §1, §2, §3

[16] = test system: PHF23; conditions: PHF23, GST-tagged; arrays performed twice, n of 4
Excerpt: as §1, §2, §3

[17] = test system: DIDO1; conditions: DIDO1, GST-tagged; arrays performed twice, n of 4
Excerpt: as §1, §2, §3

[18] = test system: KDM7A; conditions: KDM7A, GST-tagged; arrays performed twice, n of 4
Excerpt: as §1, §2, §3

[19] = test system: CHD5 (PPCC); conditions: CHD5 (PPCC), GST-tagged; arrays performed twice, n of 4
Excerpt: as §1, §2, §3

[20] = test system: RAG2; conditions: RAG2, GST-tagged; arrays performed twice, n of 4
Excerpt: as §1, §2, §3

[21] = test system: BPTF (PB); conditions: BPTF (PB), GST-tagged; arrays performed twice, n of 4
Excerpt: as §1, §2, §3

[22] = test system: DPF2 (PPC2W2); conditions: DPF2 (PPC2W2), GST-tagged; arrays performed twice, n of 4
Excerpt: as §1, §2, §3

[23] = test system: KDM4C (TTP); conditions: KDM4C (TTP), GST-tagged; arrays performed twice, n of 4
Excerpt: as §1, §2, §3

[24] = test system: TAF3; conditions: TAF3, GST-tagged; arrays performed twice, n of 4
Excerpt: as §1, §2, §3

[25] = test system: AIRE (PP); conditions: AIRE (PP), GST-tagged; arrays performed twice, n of 4
Excerpt: as §1, §2, §3

[26] = test system: MORC3 (CW); conditions: MORC3 (CW), GST-tagged; arrays performed twice, n of 4
Excerpt: as §1, §2, §3

[27] = test system: SP140L; conditions: SP140L, GST-tagged; arrays performed twice, n of 4
Excerpt: as §1, §2, §3

[28] = test system: ING5; conditions: ING5, GST-tagged; arrays performed twice, n of 4
Excerpt: as §1, §2, §3

[29] = test system: PHRF1 (RP); conditions: PHRF1 (RP), GST-tagged; arrays performed twice, n of 4
Excerpt: as §1, §2, §3

[30] = test system: CHD5 (PCC); conditions: CHD5 (PCC), GST-tagged; arrays performed twice, n of 4
Excerpt: as §1, §2, §3

| Substance | Array Heatmap value (peptide array binding signal) [1] | Array Heatmap value (peptide array binding signal) [2] | Array Heatmap value (peptide array binding signal) [3] | Array Heatmap value (peptide array binding signal) [4] | Array Heatmap value (peptide array binding signal) [5] | Array Heatmap value (peptide array binding signal) [6] | Array Heatmap value (peptide array binding signal) [7] | Array Heatmap value (peptide array binding signal) [8] | Array Heatmap value (peptide array binding signal) [9] | Array Heatmap value (peptide array binding signal) [10] | Array Heatmap value (peptide array binding signal) [11] | Array Heatmap value (peptide array binding signal) [12] | Array Heatmap value (peptide array binding signal) [13] | Array Heatmap value (peptide array binding signal) [14] | Array Heatmap value (peptide array binding signal) [15] | Array Heatmap value (peptide array binding signal) [16] | Array Heatmap value (peptide array binding signal) [17] | Array Heatmap value (peptide array binding signal) [18] | Array Heatmap value (peptide array binding signal) [19] | Array Heatmap value (peptide array binding signal) [20] | other results |
| --- | --- | --- | --- | --- | --- | --- | --- | --- | --- | --- | --- | --- | --- | --- | --- | --- | --- | --- | --- | --- | --- |
| H4K5ac + K16ac: H4 1-23 | 0.425 | 0.4193 | 0.5774 | 0.5139 | 0.4504 | 0.4436 | 0.5383 | 0.4676 | 0.5823 | 0.4611 | 0.4411 | 0.5396 | 0.3305 | 0.4348 | 0.5084 | 0.509 | 0.6124 | 0.3523 | 0.5427 | 0.2387 | Array Heatmap value (peptide array binding signal) [21]: 0.3372; Array Heatmap value (peptide array binding signal) [22]: 0.6547; Array Heatmap value (peptide array binding signal) [23]: 0.5082; Array Heatmap value (peptide array binding signal) [24]: 0.2655; Array Heatmap value (peptide array binding signal) [25]: 0.4583; Array Heatmap value (peptide array binding signal) [26]: 0.3384; Array Heatmap value (peptide array binding signal) [27]: 0.3592; Array Heatmap value (peptide array binding signal) [28]: 0.3563; Array Heatmap value (peptide array binding signal) [29]: 0.4298; Array Heatmap value (peptide array binding signal) [30]: 0.7385 |
| H4K5me1 + K8ac + K12me1: H4 1-23 | 0.5535 | 0.4387 | 0.6435 | 0.5981 | 0.4974 | 0.4694 | 0.6142 | 0.4746 | 0.626 | 0.5017 | 0.4924 | 0.6387 | 0.3528 | 0.4816 | 0.5678 | 0.5681 | 0.8611 | 0.3765 | 0.5643 | 0.2728 | Array Heatmap value (peptide array binding signal) [21]: 0.368; Array Heatmap value (peptide array binding signal) [22]: 0.687; Array Heatmap value (peptide array binding signal) [23]: 0.4942; Array Heatmap value (peptide array binding signal) [24]: 0.2843; Array Heatmap value (peptide array binding signal) [25]: 0.4591; Array Heatmap value (peptide array binding signal) [26]: 0.3838; Array Heatmap value (peptide array binding signal) [27]: 0.3553; Array Heatmap value (peptide array binding signal) [28]: 0.3748; Array Heatmap value (peptide array binding signal) [29]: 0.4574; Array Heatmap value (peptide array binding signal) [30]: 0.7798 |
| H4K5me1 + K8me1 + K12me1: H4 1-23 | 0.5422 | 0.4441 | 0.6372 | 0.5583 | 0.4829 | 0.4603 | 0.619 | 0.4935 | 0.6061 | 0.4984 | 0.4977 | 0.6442 | 0.35 | 0.4789 | 0.5585 | 0.5446 | 0.7167 | 0.3674 | 0.5726 | 0.2518 | Array Heatmap value (peptide array binding signal) [21]: 0.3553; Array Heatmap value (peptide array binding signal) [22]: 0.7329; Array Heatmap value (peptide array binding signal) [23]: 0.4976; Array Heatmap value (peptide array binding signal) [24]: 0.2856; Array Heatmap value (peptide array binding signal) [25]: 0.4682; Array Heatmap value (peptide array binding signal) [26]: 0.3716; Array Heatmap value (peptide array binding signal) [27]: 0.3587; Array Heatmap value (peptide array binding signal) [28]: 0.3655; Array Heatmap value (peptide array binding signal) [29]: 0.5051; Array Heatmap value (peptide array binding signal) [30]: 0.851 |

— PMC6979384, “Characterization of the plant homeodomain (PHD) reader family for their histone tail interactions” (Epigenetics & Chromatin, 2020)
